Results from US20200190073A1, “SUBSTITUTED SUCCINIMIDE DERIVATIVES AS PESTICIDES” (BASF SE, priority 2017, published 2020).

Test system: Orchid Thrips (Dichromothrips Corbetti)
Experiment: CE.3 Orchid thrips, comparative test
Assay type: in vivo
Conditions: 96 h, 10 ppm, after 4 days, read-out: % mortality in comparison to untreated controls
Method in brief: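 Orchid flower petals were dipped in 300 ppm compound in 1:1 acetone:water plus 0.01% v/v surfactant and dried, then caged with 10-15 lab-colony adults. Live thrips were counted after 4 days, and % mortality was derived from pre-treatment numbers relative to untreated controls.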

Structure (SMILES): CCN1C(=O)C[C@@H](NC(=O)c2ccc(C3=NOC(c4ccc(F)c(Cl)c4)(C(F)(F)F)C3)cc2Cl)C1=O (stereo partly shown) [Compound I-1-53]
- mortality at 10 ppm: 100%
